Reference: PubChem BioAssay AID248 (DTP/NCI, 2004)
Several values for one entry are separate records, joined by “and”; a condition that tells them apart may be missing. Equal values may be shown once. Toxic doses and inconclusive results are not listed. No stated cut-off is given here; in the data, active means T/C of 150% or more; inactive means T/C below 125%.

Tested on: L1210 leukemia ip in BDF1 mice, survival T/C
Test: NCI In Vivo Anticancer Drug Screen. Data for tumor model L1210 Leukemia (intraperitoneal) in B6D2F1 (BDF1) mice
Settings: endpoint: mean survival time, higher = longer survival
In short: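 Transplanted-tumor mice were given test agent; controls received vehicle only. Survival readings from the two groups were divided (treated over control).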

[1] = dose: 100.0 mg/kg/injection, schedule: Q01DX001 (ip), vehicle: carboxymethylcellulose (CMC)
[2] = dose: 200.0 mg/kg/injection, schedule: Q01DX001 (ip), vehicle: carboxymethylcellulose (CMC)
[3] = dose: 400.0 mg/kg/injection, schedule: Q01DX001 (ip), vehicle: carboxymethylcellulose (CMC)
[4] = dose: 100.0 mg/kg/injection, schedule: Q04DX002 (ip), vehicle: Klucel (hydroxypropylcellulose) (HPC)
[5] = dose: 200.0 mg/kg/injection, schedule: Q04DX002 (ip), vehicle: Klucel (hydroxypropylcellulose) (HPC)
[6] = dose: 400.0 mg/kg/injection, schedule: Q04DX002 (ip), vehicle: Klucel (hydroxypropylcellulose) (HPC)
[7] = dose: 50.0 mg/kg/injection, schedule: Q01DX009 (ip), vehicle: Klucel (hydroxypropylcellulose) (HPC)
[8] = dose: 100.0 mg/kg/injection, schedule: Q01DX009 (ip), vehicle: Klucel (hydroxypropylcellulose) (HPC)
[9] = dose: 200.0 mg/kg/injection, schedule: Q01DX009 (ip), vehicle: Klucel (hydroxypropylcellulose) (HPC)
[10] = dose: 50.0 mg/kg/injection, schedule: Q01DX001 (ip), vehicle: saline
[11] = dose: 100.0 mg/kg/injection, schedule: Q01DX001 (ip), vehicle: saline
[12] = dose: 200.0 mg/kg/injection, schedule: Q01DX001 (ip), vehicle: saline
[13] = dose: 50.0 mg/kg/injection, schedule: Q01DX009 (ip), vehicle: saline with Tween-80
[14] = dose: 100.0 mg/kg/injection, schedule: Q01DX009 (ip), vehicle: saline with Tween-80
[15] = dose: 100.0 mg/kg/injection, schedule: Q04DX003 (ip), vehicle: saline with Tween-80
[16] = dose: 200.0 mg/kg/injection, schedule: Q01DX009 (ip), vehicle: saline with Tween-80
[17] = dose: 200.0 mg/kg/injection, schedule: Q04DX003 (ip), vehicle: saline with Tween-80
[18] = dose: 400.0 mg/kg/injection, schedule: Q01DX009 (ip), vehicle: saline with Tween-80
[19] = dose: 400.0 mg/kg/injection, schedule: Q04DX003 (ip), vehicle: saline with Tween-80
[20] = dose: 100.0 mg/kg/injection, schedule: Q04DX003 (ip), vehicle: saline
[21] = dose: 200.0 mg/kg/injection, schedule: Q04DX003 (ip), vehicle: saline
[22] = dose: 400.0 mg/kg/injection, schedule: Q01DX009 (ip), vehicle: Klucel (hydroxypropylcellulose) (HPC)
[23] = dose: 400.0 mg/kg/injection, schedule: Q01DX001 (ip), vehicle: saline

Measured: T/C

O=C(O)c1ccccc1SSc1ccccc1C(=O)O
inactive: dose: 50.0 mg/kg/injection, schedule: Q01DX001 (ip), vehicle: carboxymethylcellulose (CMC) 100 % of control | [1] 100 % of control | [2] 96 % of control | [3] 103 % of control

CCOC(=O)CC(C)=O.CCOC(=O)CC(C)=O.CCOC(=O)CC(C)=O.[Al]
inactive: dose: 12.5 mg/kg/injection, schedule: Q01DX005 (ip), vehicle: Klucel (hydroxypropylcellulose) (HPC) 96 % of control | dose: 12.5 mg/kg/injection, schedule: Q01DX009 (ip), vehicle: Klucel (hydroxypropylcellulose) (HPC) 104 % of control | dose: 25.0 mg/kg/injection, schedule: Q01DX005 (ip), vehicle: Klucel (hydroxypropylcellulose) (HPC) 100 % of control | dose: 25.0 mg/kg/injection, schedule: Q01DX009 (ip), vehicle: Klucel (hydroxypropylcellulose) (HPC) 107 % of control | dose: 50.0 mg/kg/injection, schedule: Q01DX005 (ip), vehicle: Klucel (hydroxypropylcellulose) (HPC) 93 % of control | [4] 100 % of control | [5] 93 % of control | [6] 107 % of control

CCOC(=O)C1C(=O)C(C(C(=O)OC2CC(C)CCC2C(C)C)N(CCCl)CCCl)C(=O)C(C(=O)OCC)C1c1ccc(O)cc1 (configuration not stated)
inactive: [7] 104 % of control | [8] 104 % of control | [9] 101 % of control

Fc1cccc(N2CCOCC2)c1
inactive: [10] 101 % of control | [11] 93 % of control | [12] 101 % of control

CCN(CC)c1ccc(NC(=O)Nc2ccccc2OC)cc1
inactive: [13] 103 % of control | [14] 93 % of control and 101 % of control | [15] 103 % of control | [16] 101 % of control | [17] 97 % of control | [18] 95 % of control | [19] 96 % of control

O=C(O)COc1ccc(OS(=O)(=O)c2ccccc2)cc1
inactive: [4] 103 % of control | [5] 111 % of control | [6] 103 % of control

O=S(=O)(/C=C/c1ccccc1)N1CCOCC1
inactive: dose: 100.0 mg/kg/injection, schedule: Q01DX001 (ip), vehicle: acetone 111 % of control | dose: 100.0 mg/kg/injection, schedule: Q01DX009 (ip), vehicle: acetone 90 % of control | dose: 100.0 mg/kg/injection, schedule: Q04DX003 (ip), vehicle: acetone 100 % of control | dose: 200.0 mg/kg/injection, schedule: Q01DX001 (ip), vehicle: acetone 102 % of control | dose: 200.0 mg/kg/injection, schedule: Q01DX009 (ip), vehicle: acetone 93 % of control | dose: 200.0 mg/kg/injection, schedule: Q04DX003 (ip), vehicle: acetone 105 % of control | dose: 400.0 mg/kg/injection, schedule: Q01DX001 (ip), vehicle: acetone 101 % of control | dose: 400.0 mg/kg/injection, schedule: Q01DX009 (ip), vehicle: acetone 93 % of control | dose: 400.0 mg/kg/injection, schedule: Q04DX003 (ip), vehicle: acetone 97 % of control

O=C(O)CCC(=O)Nc1ccccc1C(F)(F)F
inactive: [15] 104 % of control | [16] 93 % of control | [17] 98 % of control | [18] 86 % of control | [19] 90 % of control

CCOC(=O)c1cn(C2OC(COC(C)=O)C(OC(C)=O)C2OC(C)=O)c2nc(SC)nc(NC(C)=O)c2c1=O (configuration not stated)
inactive: dose: 100.0 mg/kg/injection, schedule: Q01DX005 (ip), vehicle: saline 97 % of control | dose: 200.0 mg/kg/injection, schedule: Q01DX005 (ip), vehicle: saline 91 % of control

CC[n+]1c(C)sc2cc(Cl)c(-c3ccccc3)cc21
inactive: [20] 98 % of control | [21] 101 % of control | dose: 400.0 mg/kg/injection, schedule: Q04DX003 (ip), vehicle: saline 95 % of control

O=C(O)CCc1ccncc1
inactive: dose: 100.0 mg/kg/injection, schedule: Q04DX002 (ip), vehicle: saline 100 % of control | dose: 200.0 mg/kg/injection, schedule: Q04DX002 (ip), vehicle: saline 122 % of control | dose: 400.0 mg/kg/injection, schedule: Q04DX002 (ip), vehicle: saline 103 % of control

CC(=O)Nc1ccc(/C=N\NC(=O)Nc2ccccc2)cc1
inactive: [8] 90 % of control | [9] 90 % of control | [22] 91 % of control

CCC(=O)Nc1cccc(OC(=O)NCC(C)C)c1
inactive: [14] 92 % of control | [16] 94 % of control | [18] 91 % of control

Cc1ccc(SP(=O)(Sc2ccc(C)cc2)Sc2ccc(C)cc2)cc1
inactive: dose: 100.0 mg/kg/injection, schedule: Q04DX002 (ip), vehicle: saline with Tween-80 97 % of control | dose: 200.0 mg/kg/injection, schedule: Q04DX002 (ip), vehicle: saline with Tween-80 97 % of control | dose: 400.0 mg/kg/injection, schedule: Q04DX002 (ip), vehicle: saline with Tween-80 97 % of control

Oc1ccccc1C=Nc1cnc2ccccc2c1
inactive: [1] 95 % of control | [2] 98 % of control | [3] 95 % of control

COc1ccc(CC2=NNC(Cc3ccc(OC)c(OC)c3)=NN2)cc1OC
inactive: [15] 91 % of control | [17] 91 % of control | [19] 93 % of control

C[N+](C)(C)/N=C/C1=C(Cl)CCCC1
inactive: dose: 3.13 mg/kg/injection, schedule: Q04DX002 (ip), vehicle: Klucel (hydroxypropylcellulose) (HPC) 94 % of control | dose: 6.25 mg/kg/injection, schedule: Q04DX002 (ip), vehicle: Klucel (hydroxypropylcellulose) (HPC) 102 % of control | dose: 12.5 mg/kg/injection, schedule: Q04DX002 (ip), vehicle: Klucel (hydroxypropylcellulose) (HPC) 97 % of control | dose: 75.0 mg/kg/injection, schedule: Q01DX001 (ip), vehicle: carboxymethylcellulose (CMC) 114 % of control

CCCC1([N+]2(C)CCCC2)CS(=O)C1CC (configuration not stated)
inactive: [20] 98 % of control | [21] 93 % of control

O=[N+]([O-])c1ccc(NCSc2ccc(Cl)cc2)cc1
inactive: dose: 100.0 mg/kg/injection, schedule: Q04DX003 (ip), vehicle: other 101 % of control | dose: 200.0 mg/kg/injection, schedule: Q04DX003 (ip), vehicle: other 106 % of control | dose: 400.0 mg/kg/injection, schedule: Q04DX003 (ip), vehicle: other 108 % of control

O=C(Nc1cccc(Cl)c1)NS(=O)(=O)c1ccccc1
inactive: [8] 97 % of control | [9] 105 % of control | [22] 106 % of control

c1ccc(CSC2=NCCS2)cc1
inactive: [11] 101 % of control | [14] 98 % of control | [12] 106 % of control | [16] 98 % of control | [23] 106 % of control | [18] 104 % of control

Cc1c(/C=N/N=c2/[nH][nH]/c(=N/N=C/c3c(C)n(C)n(-c4ccccc4)c3=O)c3ccccc23)c(=O)n(-c2ccccc2)n1C
inactive: [10] 93 % of control | [11] 106 % of control | [12] 114 % of control

O=C(Nc1ncc([N+](=O)[O-])s1)C(F)(F)F
inactive: [10] 97 % of control | [11] 92 % of control | [12] 90 % of control | [23] 105 % of control

CSC(CC(=O)O)C(=O)O (configuration not stated)
inactive: dose: 75.0 mg/kg/injection, schedule: Q01DX001 (ip), vehicle: saline 97 % of control | dose: 150.0 mg/kg/injection, schedule: Q01DX001 (ip), vehicle: saline 108 % of control

O=C(Cl)C1CC2c3ccccc3C1([N+](=O)[O-])c1ccccc12 (configuration not stated)
inactive: [7] 109 % of control | [8] 102 % of control | dose: 100.0 mg/kg/injection, schedule: Q04DX003 (ip), vehicle: Klucel (hydroxypropylcellulose) (HPC) 104 % of control | [9] 112 % of control and 91 % of control | dose: 200.0 mg/kg/injection, schedule: Q04DX003 (ip), vehicle: Klucel (hydroxypropylcellulose) (HPC) 104 % of control | [22] 101 % of control | dose: 400.0 mg/kg/injection, schedule: Q04DX003 (ip), vehicle: Klucel (hydroxypropylcellulose) (HPC) 98 % of control

C#CCC#CCCCCCC
inactive: [13] 95 % of control | [14] 95 % of control | [16] 95 % of control
